Structures can show the parent of a compound that is named as a salt.
Test: CCK-8 cytotoxicity in MCF-7 cells
Format: cell-based
Conditions: human, MCF-7 breast cancer epithelial cells, MCF-7, 6 μg mL^−1 of DOX
Protocol: Cytotoxicity of the intact GSH-sensitive HMSiO2 NPs, TEOS HMSiO2 NPs, DOX-loaded GSH-sensitive HMSiO2 NPs, DOX-loaded TEOS HMSiO2 NPs, and free DOX was evaluated in MCF-7 breast cancer epithelial cells. Cells were cultured at 37° C. in 5% CO2 in DMEM with 10% FBS. Then, the cells were stained using Trypan Blue Stain 0.4% and read by Invitrogen Countess™ automated cell counter (Thermo Fisher Scientific Corporation, Grand Island, N.Y., USA). For the cytotoxicity evaluation, cells were seeded onto 96-well plates with the density of 4,000 cells/well and incubated to grow for 48 h. After 48 h, the cells were washed with PBS. Fresh media containing 10% FBS was then added (120 μL) with varying nanoparticle concentrations ranging from 0 to 1,000 μg mL^−1. Wells with media or Triton™ X-100 (without nanoparticles) were used as negative or positive controls, respectively. The cells were then incubated for another 24 and 48 h, the media was aspirated, and the cells were washed twice with PBS. Cell viability was determined using CCK-8 cytotoxicity assay kit according to an established protocol and absorbance was measured at 450 nm with SpectraMax® M2 microplate reader. Assays were performed at least in triplicate.

What does the source list for `COc1cccc2c1C(=O)c1c(O)c3c(c(O)c1C2=O)C[C@@](O)(C(=O)CO)C[C@@H]3O[C@H]1C[C@H](N)[C@H](O)[C@H](C)O1` [free DOX, Doxorubicin hydrochloride salt]?
cytotoxicity at 24 h, 6 μg mL^−1 (24 h incubation, read-out: Cell viability reduction (cells killed)): ~64%; cytotoxicity at 48 h, 6 μg mL^−1 (48 h incubation, read-out: Cell viability reduction): ~80%

— US11130679B2, “Biodegradable hollow nanoparticles and methods and apparatus for manufacturing the same” (University of Utah Research Foundation, priority 2018, dated 2021)
